Reference: patent US20090048336A1, “ESCITALOPRAM OXALATE POWDERS” (priority 2007, published 2009)
Where a name gives a salt, the structure may show the parent alone.

Assay: Particle size distribution of micronized escitalopram oxalate batches (laser light diffraction, Malvern instrument)
Format: physicochemical
Details: micronized powder; for D50/D95: ratio of D50 to D95; for D50: size below which 50 volume percent of particles lie; for D50 / D95: Malvern instrument; for D95: size below which 95 volume percent of particles lie
Source text: The term D95 as used herein is defined as a size of particles where 95 volume percent of the particles have sizes less than the value given. The term D50 defines a size where 50 volume percent of the particles have sizes less than the value given.
The particle size distributions for the present application can measured using laser light diffraction equipment, such as are sold by Malvern Instruments Ltd., Malvern, Worcestershire, United Kingdom. Other types of equipment are also suitable for particle size distribution determinations.
The obtained solid was micronized in a jet mill to produce desired particle sizes. The feed pressure was adjusted to about 2 Kg/cm^2; the chamber pressure was adjusted to about 1.5 Kg/cm^2 and the feed rate to about 1 to 2 kg/hour. The material fed into the micronizer through a charging hopper. The obtained micronized material was collected into a container.

D50/D95 (listed as 2)	D50 (listed as 2)	D95 (listed as 2)	D50/D95 (listed as 1)	D50 (listed as 1)	D95 (listed as 1)	Structure (SMILES)
0.4653	4.56	9.80				CN(C)CCCC1(c2ccc(F)cc2)OCc2cc(C#N)ccc21 (stereo not drawn) [Batch 2, S-(+)-1-[3-(dimethyl-amino)propyl]-1-(p-fluorophenyl)-5-phthalancarbonitrile oxalate]
			0.4293	3.95	9.20	CN(C)CCCC1(c2ccc(F)cc2)OCc2cc(C#N)ccc21 (stereo not drawn) [Batch 1, S-(+)-1-[3-(dimethyl-amino)propyl]-1-(p-fluorophenyl)-5-phthalancarbonitrile oxalate]
